Where a name gives a salt, the structure may show the parent alone.

The first experiment has as its target T1, human NCX1 (Homo sapiens, UniProt P32418).
T1 construct: expressed in transfected cells
Nature of the experiment: Inhibition of Ca2+ influx into cells (NCX1 reverse mode), FLIPR Fluo-4 assay. It is filed as cell-based. The conditions noted are these: at 10 μM; NCX1 reverse mode; IC50 value not determined; read-out: Inhibition in % at 10 μM (NCX1rv). An excerpt:
The sodium/calcium exchanger NCX1 can transport calcium ions and sodium ions through the cell membrane. The transport is an exchange of Ca^2+ and Na^+ in two directions depending on membrane potential and ion gradients. At the first direction, named “forward mode” or “calcium export mode”, Ca^2+ is transported out of the cell and Na^+ is transported into the cell. At the other direction, named “reverse mode” or “calcium import mode”, the transport directions are vice versa. The effect of the compounds of the invention on NCX1 was determined in CHO cells stably expressing human NCX1 (gene symbol SLC8A1; cf. WO 2009/115238). The assay is based on the monitoring of intracellular Ca^2+ concentrations using a calcium-sensitive fluorescence dye which is detected by means of a FLIPR device (Fluorimetric Imaging Plate Reader, Molecular Devices).
Assay Technology—Reverse Mode
The assay is based on the monitoring of intracellular Ca^2+ concentrations using the calcium-sensitive dye Fluo-4. CHO cells expressing NCX1 were loaded with the dye by means of the acetoxymethyl ester Fluo-4 AM (Invitrogen, F14202), which is cleaved intracellularly by esterase activity to yield the charged species of free Fluo-4. After an preincubation period with the test compound, Gramicidine (Sigma, G5002) was added. Gramicidine is an ionophor for Na^+ ions mediating an increase of intracellular Na^+ ions. Consequently, intracellular Na^+ ions are exchanged against extracellular Ca^2+ ions (Ca^2+ influx, reverse mode). The intracellular elevation of Ca^2+ ions was detected by measuring the fluorescence of Fluo-4 at a wavelength of 520 nm by a FLIPR device.
Briefly, for the reverse mode transport assay 18000 cells per well were seeded into a 96 well microplate (Corning COSTAR 3904) and incubated overnight in culture medium (1× Nut Mix F12 (Ham) (Gibco, 21765-029); 10% (v/v) fetal calf serum (PAA Gold, A15-649); 450 μg/ml Geneticin (Gibco, 10131-027)). A total volume of 100 μl medium per well was used. For the preparation of the FLIPR assay, the culture medium was removed from the plates and 100 μl of dye solution (2 μM Fluo-4 AM; 0.02% (v/v) Pluronic F-127 (20%, Invitrogen, P3000MP); 0.1% (v/v) bovine albumin solution (30% (v/v), Sigma, A9205) in assay buffer (133.8 mM NaCl (Sigma, S5886); 4.7 mM KCl (Sigma, P3911); 1.25 mM MgCl2 (Merck, 1.05833.0250); 3.5 mM CaCl2 (Merck, 1.02083.0250); 5 mM glucose (Sigma, G7021); 10 mM Hepes (Sigma, H4034); 0.01% (v/v) Pluronic F-127 (5%, Sigma, P2443); 2.5 mM Probenecid (Maybridge, SB00915EB); pH 7.4)) were added into each well. The plates were incubated in the dark at room temperature for 80 min. After the incubation period, the dye solution was removed and the wells were washed with 100 μl of assay buffer. Then 80 μl of a solution of the test compound in assay buffer in different concentrations were added into the wells. The plates were incubated at 16° C. for 45 min. Meanwhile a 60 μM solution of Gramicidine in assay buffer (4° C.) was prepared and stored in the wells of a 96 well microplate (96 well microplate, polypropylene, U-shape (Greiner Bio-One, 650201)) at 4° C. until measurement was started. The fluorescence monitoring was performed at 240 measuring points with measurement intervals of 2 sec. After the fifth measuring point, 40 μl of the Gramicidine solution were added to each well of the assay plates to give a final Gramicidine concentration of 20 μM. For the determination of the IC50 values the minimal fluorescence value was subtracted from the maximal fluorescence value for all measuring points. The calculation of the IC50 values via the percentage inhibitions of Ca^2+ influx into cells (reverse mode) effected by the test compound was performed in Biost@t Speed 2.0.
Broadly, the inhibition is the relative decrease from the control value, in per cent. Regarding `Cc1ccccc1C1CCc2cc(OC3CCC(NCCCOC4CCCC4)CC3)ccc2O1` (stereo not shown) [compound 199], the inhibition at 10 µM was 71%.

Consider `COCC(C)(C)CNC1CCC(Oc2ccc3c(c2)CCC(c2ccccc2C)O3)CC1` (stereo not shown) [compound 200], for which the inhibition at 10 µM amounted to 94%.

Consider `CCC(COC)NC1CCC(Oc2ccc3c(c2)CCC(c2ccccc2C)O3)CC1` (stereo not shown) [compound 195], for which the inhibition at 10 µM was 96%.

Staying with this experiment, now noted: inhibition of NCX1 in reverse mode (Ca2+ influx into cells); read-out: NCX1rv IC50.
What is called IC50 is the concentration that inhibits the measured activity by half. Consider `O=C(CO)N[C@H]1CC[C@H](Oc2ccc3c(c2)CCC(c2ccccc2)O3)CC1` (relative stereo) [compound 278], for which the IC50 was found to be 200 nM.

On to `CCn1nccc1CNC1CCC(Oc2ccc3c(c2)CCC(c2ccccc2)O3)CC1` (stereo not shown) [compound 76], for which the IC50 is 1000 nM.

As for `Cc1ccnn1CCC(=O)N[C@H]1CC[C@H](Oc2ccc3c(c2)CCC(c2ccccc2)O3)CC1` (relative stereo) [compound 42], the 50% inhibitory concentration (IC50) came out at 200 nM.

For the compound `CC1Cc2cc(OC3CCC(C(=O)NCc4ccno4)CC3)ccc2OC1c1ccccc1` (stereo not shown) [compound 298], the 50% inhibitory concentration (IC50) amounted to 1400 nM.

In the case of `Cc1c(F)cccc1C1CCc2cc(OC3CCC(C(=O)NCCNS(C)(=O)=O)CC3)ccc2O1` (stereo not shown) [compound 277], the IC50 was found to be 300 nM.

As for `Cc1ccn(CC(=O)N[C@H]2CC[C@H](Oc3ccc4c(c3)CCC(c3ccccc3F)O4)CC2)n1` (relative stereo) [compound 250], the IC50 worked out at 800 nM.

Turning to `C[C@H]1CC[C@H](NC2CCC(Oc3ccc4c(c3)CCC(c3ccccc3)O4)CC2)CC1` (relative stereo) [compound 146], the concentration for half-maximal inhibition (IC50) worked out at 2000 nM.

`c1ccc(C2CCc3cc(O[C@H]4CC[C@H](NCC5CCCCC5)CC4)ccc3O2)cc1` (stereo partly drawn) [compound 63, N-(Cyclohexylmethyl)-[trans-4-(2-phenylchroman-6-yloxy)]-cyclohexylamine]: the IC50 stood at 600 nM.

Consider `Cc1cccc(C)c1C1CCc2cc(OC3CCC(C(=O)NCc4ccno4)CC3)ccc2O1` (stereo not shown) [compound 167], for which the IC50 came out at 7700 nM.

As for `CCOCCCNC1CCC(Oc2ccc3c(c2)CCC(c2ccccc2F)O3)CC1` (stereo not shown) [compound 223], the IC50 turned out to be 3100 nM.

With `N[C@H]1CC[C@H](Oc2ccc3c(c2)CC[C@H](c2ccccc2)O3)CC1` [compound 9, hydrochloride], the IC50 is 300 nM.

With `CC(C)(C)CNC1CCC(Oc2ccc3c(c2)CCC(c2ccccc2)O3)CC1` (stereo not shown) [compound 161, N-(2,2-Dimethylpropyl)-4-(2-phenylchroman-6-yloxy)-cyclohexylamine], the IC50 turned out to be 1300 nM.

On to `CCn1cc(CN[C@H]2CC[C@H](Oc3ccc4c(c3)CCC(c3ccccc3)O4)CC2)c(C)n1` (stereo partly drawn) [compound 68, N-(1-Ethyl-3-methyl-pyrazol-4-ylmethyl)-[trans-4-(2-phenylchroman-6-yloxy)]-cyclohexylamine], for which the IC50 came out at 300 nM.

For the compound `CN[C@@H](C)C(=O)N[C@H]1CC[C@H](Oc2ccc3c(c2)CCC(c2ccccc2)O3)CC1` (stereo partly shown) [compound 71, hydrochloride], the IC50 came to 600 nM.

Turning to `O=C(NCc1ccno1)C1CCC(Oc2ccc3c(c2)CCC(c2ccccc2F)O3)CC1` (stereo not shown) [compound 174], the half-maximal inhibitory concentration (IC50) turned out to be 600 nM.

Regarding `N[C@H]1CC[C@H](Oc2ccc3c(c2)CCC(c2ccccc2)O3)CC1` (stereo partly drawn) [compound 5, trans-4-(2-Phenylchroman-6-yloxy)cyclohexylamine], the IC50 was 300 nM.

“N-Pentyl-4-(2-phenylchroman-6-yloxy)-cyclohexylamine [compound 144]”: the IC50 turned out to be 600 nM.

Consider `Cc1ccccc1C1CCc2cc(O[C@H]3CC[C@H](C(=O)Nc4ccccn4)CC3)ccc2O1` (relative stereo) [compound 266], for which the IC50 is 300 nM.

Take `Cc1ccccc1C1CCc2cc(O[C@H]3CC[C@H](NCC(=O)O)CC3)ccc2O1` (relative stereo) [compound 271]: the IC50 is 800 nM.

Consider `Cc1c(F)cccc1C1CCc2cc(OC3CCC(C(=O)NCCS(=O)(=O)N(C)C)CC3)ccc2O1` (stereo not shown) [compound 274], for which the IC50 was 600 nM.

Take `CCCN[C@H]1CC[C@H](Oc2ccc3c(c2)CC[C@@H](c2ccccc2)O3)CC1` [compound 18]: the IC50 worked out at 500 nM.

Turning to `Cc1nn(C)c(C)c1CCC(=O)N[C@H]1CC[C@H](Oc2ccc3c(c2)CCC(c2ccccc2F)O3)CC1` (relative stereo) [compound 254], the IC50 turned out to be 300 nM.

For `c1ccc(C2CCc3cc(O[C@H]4CC[C@H](NCc5ccoc5)CC4)ccc3O2)cc1` (stereo partly drawn) [compound 53, N-(Furan-3-ylmethyl)-[trans-4-(2-phenylchroman-6-yloxy)]-cyclohexylamine], the IC50 amounted to 500 nM.

As to `CC(C)(C)CCNC1CCC(Oc2ccc3c(c2)CCC(c2ccccc2)O3)CC1` (stereo not shown) [compound 127], the 50% inhibitory concentration (IC50) was determined as 1100 nM.

Take `CCC(N)C1(CC)CCC(Oc2ccc3c(c2)CCC(c2ccccc2)O3)CC1` (stereo not shown) [compound 11, hydrochloride]: the half-inhibitory concentration (IC50) was 2800 nM.

For the compound “4-(2-Phenylchroman-6-yloxy)-N-(2-pyrrolidin-1-ylethyl)cyclohexylamine [compound 137]”, the IC50 was found to be 1300 nM.

On to `Cc1ccccc1C1CCc2cc(OC3CCC(NCCN4CCOCC4)CC3)ccc2O1` (stereo not shown) [compound 202], for which the IC50 was 1900 nM.

Take `Cc1ccn(CC(=O)N[C@H]2CC[C@H](Oc3ccc4c(c3)CCC(c3ccccc3)O4)CC2)n1` (relative stereo) [compound 28]: the IC50 was 200 nM.

On to “N-(3,3-Dimethylbutyl)-4-(2-phenylchroman-6-yloxy)-cyclohexylamine [compound 152]”, for which the IC50 is 1400 nM.

For `Cn1cncc1CN[C@H]1CC[C@H](Oc2ccc3c(c2)CCC(c2ccccc2)O3)CC1` (stereo partly drawn) [compound 57, N-(3-Methylimidazol-4-ylmethyl)-[trans-4-(2-phenylchroman-6-yloxy)]-cyclohexylamine], the IC50 was 500 nM.

With `O=C(CCn1cccn1)N[C@H]1CC[C@H](Oc2ccc3c(c2)CCC(c2ccccc2F)O3)CC1` (single isomer, unassigned) [compound 179], the concentration for half-maximal inhibition (IC50) was 1200 nM.

Regarding `Cc1c(F)cccc1C1CCc2cc(OC3CCC(C(=O)NC4CCCCC4O)CC3)ccc2O1` (single isomer, unassigned) [compound 286], the IC50 worked out at 500 nM.

`O=C(CCn1cncn1)N[C@H]1CC[C@H](Oc2ccc3c(c2)CCC(c2ccccc2F)O3)CC1` (relative stereo) [compound 237]: the IC50 stood at 200 nM.

For `CSCC(=O)N[C@H]1CC[C@H](Oc2ccc3c(c2)CCC(c2ccccc2F)O3)CC1` (relative stereo) [compound 241], the IC50 stood at 40 nM.

Take `COc1cccc(C2CCc3cc(OC4CCC(C(=O)NCc5ccno5)CC4)ccc3O2)c1F` (stereo not shown) [compound 295]: the IC50 was determined as 1100 nM.

As to `COCCCNC1CCC(Oc2ccc3c(c2)CCC(c2ccccc2F)O3)CC1` (stereo not shown) [compound 215], the IC50 is 2800 nM.

With `Fc1ccccc1C1CCc2cc(O[C@H]3CC[C@H](NCC4CCOC4)CC3)ccc2O1` (relative stereo) [compound 178], the IC50 came to 1600 nM.

`O=C(NCCO)C1CCC(Oc2ccc3c(c2)CCC(c2ccccc2F)O3)CC1` (stereo not shown) [compound 173]: the IC50 is 700 nM.

Turning to `CC(=O)N[C@H]1CC[C@@H](Oc2ccc3c(c2)CCC(c2ccccc2)O3)CC1` (relative stereo) [compound 6], the IC50 stood at 500 nM.

For the compound `CC(C)CCNC1CCC(Oc2ccc3c(c2)CCC(c2ccccc2)O3)CC1` (stereo not shown) [compound 98], the IC50 came to 600 nM.
